Bridge positions count the residues as written; N and C are the ends. Square brackets hold non-standard residues; d marks the D form. * marks the point of attachment. 5FAM = O=C1OC2(c3ccc(O)cc3Oc3cc(O)ccc32)c2ccc(C(=O)*)cc21; Cba = N[C@@H](CC1CCC1)C(=O)O; βAla = NCCC(=O)O

As usually defined, the EC50 is the concentration at which the effect is half-maximal. What is called Ki is the equilibrium dissociation constant of an inhibitor or competing ligand from its target. Low values mean higher affinity, high ones lower affinity.

Experiment [1] relates to SJSA-1 cells. As to the kind of experiment: Cell Viability Assay (MTT), SJSA-1. It counts as cell-based. The following applies: read-out: SJSA-1 EC50 (72 h).
Method: The assay is performed according to the following general protocol: • Cell Plating: Trypsinize, count and seed cells at the pre-determined densities in 96-well plates a day prior to assay.
Add 180 μL of the assay media per well. Control wells with no cells, receive 200 μl media.
Peptide dilution: all dilutions are made at room temperature and added to cells at room temperature. • Prepare 10 mM stocks of the peptides in DMSO. Serially dilute the stock using 1:3 dilution scheme to get 10, 3.3, 1.1, 0.33, 0.11, 0.03, 0.01 mM solutions using DMSO as diluents. […] Also prepare DMSO/sterile water (3% DMSO) mix for control wells. • Thus the working stocks concentration range μM will be 300, 100, 30, 10, 3, 1, 0.3 and 0 μM. […] H1-H3 will receive 20 ul of assay media. H4-H9 will receive 20 ul of 3% DMSO-water vehicle. […] Nutlin was diluted using the same dilution scheme as peptides.
(20 μl of 300 μM peptide+180 μl of cells in media=30 μM final concentration in 200 μl volume in wells). Mix gently a few times using pipette. […] Viability of SJSA-1, RKO, RKO-E6, HCT-116 cells is determined on day 3, MCF-7 cells on day 5 and SW-480 cells on day 6. At the end of designated incubation time, allow the plates to come to room temperature. Remove 80 μl of assay media from each well. Add 15 μl of thawed MTT reagent to each well. • Allow plate to incubate for 2 h at 37° C. in humidified 5% CO2 atmosphere and add 100 μl solubilization reagent as per manufacturer's protocol.
The target in experiment [2] is MDM2 (Homo sapiens, UniProt Q00987). As to the kind of experiment: Competitive Fluorescence Polarization Assay for MDM2. It counts as binding. Here is the method:
Competitive Fluorescence Polarization Assay for MDM2
The assay is performed according to the following general protocol: • 1. Dilute MDM2 (In-house, 41 kD) into FP buffer (High salt buffer-200 mM Nacl, 5 mM CHAPS, pH 7.5) to make 84 nM (2×) working stock solution. • 2. Add 20 μl of 84 nM (2×) of protein stock solution into each well of 96-well black HE microplate (Molecular Devices) • 3. Dilute 1 mM (in 100% DMSO) of FAM labeled linear peptide with DMSO to 100 μM (dilution 1:10). Then, dilute from 100 μM to 10 μM with water (dilution 1:10) and then dilute with FP buffer from 10 μM to 40 nM (dilution 1:250). This is the working solution which will be a 10 nM concentration in well (dilution 1:4). Keep the diluted FAM labeled peptide in the dark until use. • 4. Make unlabeled peptide dose plate with FP buffer starting with 1 μM (final) of peptide and making 5 fold serial dilutions for 6 points using following dilution scheme. • Dilute 10 mM (in 100% DMSO) with DMSO to 5 mM (dilution 1:2). Then, dilute from 5 mM to 500 μM with H2O (dilution 1:10) and then dilute with FP buffer from 500 μM to 20 μM (dilution 1:25). Making 5 fold serial dilutions from 4 μM (4×) for 6 points. • 5. Transfer 10 μl of serial diluted unlabeled peptides to each well which is filled with 20 μl of 84 nM of protein. • 6. Add 10 μl of […] of FAM labeled peptide into each well and incubate for 3 hr to read. […]
(Fluorescence polarisation rises when a labelled molecule tumbles more slowly, as on binding a larger partner.)

Experiment [3] has as its target T1, MDMX (Homo sapiens, UniProt O15151).
T1 sequence (O15151 1-125): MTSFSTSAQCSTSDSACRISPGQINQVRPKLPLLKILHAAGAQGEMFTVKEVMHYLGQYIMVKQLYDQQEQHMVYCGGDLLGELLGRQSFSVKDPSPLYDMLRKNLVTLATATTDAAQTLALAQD
As to the kind of experiment: Competitive Fluorescence Polarization Assay for MDMX. It counts as binding. Here is the method: Competitive Fluorescence Polarization Assay for MDMX
The assay is performed according to the following general protocol: • 1. Dilute MDMX (In-house, 40 kD) into FP buffer (High salt buffer-200 mM Nacl, 5 mM CHAPS, pH 7.5.) to make 300 nM (2×) working stock solution. 2. Add 20 μl of 300 nM (2×) of protein stock solution into each well of 96-well black HE microplate (Molecular Devices) • 3. Dilute 1 mM (in 100% DMSO) of FAM labeled linear peptide with DMSO to 100 μM (dilution 1:10). Then, dilute from 100 μM to 10 μM with water (dilution 1:10) and then dilute with FP buffer from 10 μM to 40 nM (dilution 1:250). This is the working solution which will be a 10 nM concentration in well (dilution 1:4). Keep the diluted FAM labeled peptide in the dark until use. • 4. Make unlabeled peptide dose plate with FP buffer starting with 5 μM (final) of peptide and making 5 fold serial dilutions for 6 points using following dilution scheme. • 5. Dilute 10 mM (in 100% DMSO) with DMSO to 5 mM (dilution 1:2). Then, dilute from 5 mM to 500 μM with H2O (dilution 1:10) and then dilute with FP buffer from 500 μM to 20 μM (dilution 1:25). Making 5 fold serial dilutions from 20 μM (4×) for 6 points. • 6. Transfer 10 μl of serial diluted unlabeled peptides to each well which is filled with 20 μl of 300 nM of protein. • 7. Add 10 μl of […] of FAM labeled peptide into each well and incubate for 3 hr to read. […]

Sequence of MDM2 (Q00987 1-125): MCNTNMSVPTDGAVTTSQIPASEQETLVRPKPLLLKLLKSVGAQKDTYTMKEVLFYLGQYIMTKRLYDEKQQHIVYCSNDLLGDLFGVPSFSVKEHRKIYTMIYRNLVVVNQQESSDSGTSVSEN

For “463 (5FAM-[βAla]LTF[Alpha‑Me R‑azide 1,5 triazole (6 carbon) alanine]EYWAQ[Cba][Alpha‑Me alkyne 1,5 triazole (5 carbon) alanine]SAA-NH2; triazole 5-12; not fully specified) [compound 463]”, in experiment [1], the EC50 is 15 to 30 µM.
The same measure, in the same setting: next, “464 (5FAM-[βAla]LTA[Alpha‑Me R‑azide 1,5 triazole (6 carbon) alanine]EYWAQ[Cba][Alpha‑Me alkyne 1,5 triazole (5 carbon) alanine]SAA-NH2; triazole 5-12; not fully specified) [compound 464]”: > 30 µM.
For “466 (LTFAEYWAQAASAA; not fully specified; stapled, Ac, NH2, Cba5Prp; N-term Ac; MOD_RES (4)..(4): Alpha-Me R-azide 1,4 triazole (6 carbon) alanine olefin amino acid connected by an all-carbon crosslinker comprising one double bond; misc_feature (4)..(11): Crosslink between residues; MOD_RES () [compound 466]”, the Ki in experiment [2] and in experiment [3] was < 0.01 µM in each case.
Consider “461 (5FAM-[βAla]LTF[Alpha‑Me R‑azide 1,4 triazole (6 carbon) alanine]EYWAQ[Cba][Alpha‑Me alkyne 1,4 triazole (5 carbon) alanine]SAA-NH2; triazole 5-12; not fully specified) [compound 461]”, for which the EC50 in experiment [1] fell in the range of 5 to 15 µM.
Still for that read-out and setting: the value for “452 (Ac-LTF[Alpha‑Me R‑azide 1,5 triazole (6 carbon) alanine]AYWAQL[Alpha‑Me alkyne 1,5 triazole (5 carbon) alanine]AAAAA[dA]-NH2; triazole 4-11; not fully specified; printed as Ac-LTF$5rn6AYWAQL$5a5AAAAAa-NH2) [compound 452]” was > 30 µM.

The values above are taken from patent publication US10227380B2, “Triazole-crosslinked and thioether-crosslinked peptidomimetic macrocycles” (AILERON THERAPEUTICS, INC., priority 2012, dated 2019).
